For orientation: EC50 means the concentration that produces a half-maximal response. A higher EC50 goes with lower potency in that assay.

SMILES strings stand for the structures.

The subject of the assay is Bmi-1 protein. The experiment in a line: Sandwich ELISA Assay (Bmi-1 protein level in HT-1080 cells). The class given is cell-based. As to the method: Cell Seeding and Compound Treatment (Day 1):
HT-1080 cells were seeded at 8000 cells/well (50 μL) in 96-well tissue culture plates. After the cells became adherent (3-4 hours), 2× diluted stocks of test compounds in 50 μL DMEM containing 1% DMSO (final DMSO concentration was 0.5%) were added and the plates were incubated at 37° C. under 5% CO2 for 40-48 hours.
ELISA Plate First Antibody Preparation (Day 2):
The First Antibody (Millipore Mouse, monoclonal to mouse Bmi-1, clone F6, catalog #05-637) diluted to 2 μg/mL in PBS was added (100 μL) to each well of a Nunc MaxiSorp 96-well ELISA plate. The plate was covered with a plate seal and allowed to stand overnight.
Cell Lysate Preparation (Day 3):
Fresh Lysis buffer (1×) was prepared on the day of the assay as follows: 1 mM EDTA, 150 mM NaCl, 0.5% Triton-X 100, 10 mM NaF, 20 mM B-Glycerophosphate, 1 mM DTT (in PBS, pH 7.2-7.4) and HALT protease inhibitor cocktail (1×) (Pierce #78410).
Lysis Buffer (1×, 40 μL) was added to each well and the plate was shaken for 5-10 minutes on an orbital shaker to allow cell lysis, then diluent (1% BSA in PBS in 0.5% NP40) (100 μL) was added to each well.
A standard curve was prepared at the following Bmi-1 concentrations: 8000, 4000, 2000, 1000, 500, 250, 125 and 0 pg/mL. The Bmi-1 Recombinant Protein Standard (Novus Biologicals PCGF4 Recombinant Protein (P01), catalog # H00000648-P01) used to prepare the standard curve was stored at −80° C. On first thaw, the Recombinant Protein Standard was diluted to 10 μg/μL in Blocking Buffer (1% BSA in PBS; BSA: Fisher Scientific Catalog #1600-100). Aliquots were taken and refrozen at −80° C. The aliquots may be kept at 4° C. and reused after first thaw, but only within 1-2 weeks. The Recombinant Protein Standard contains a GST-fusion tag that appears at approximately 70 Kda on Western Blot.
The prepared ELISA plate was washed 3× with Wash Buffer (0.05% Tween-20 in PBS). The final wash was removed from the plate and the plate was blotted dry. Blocking Buffer (300 μL) (1% BSA in PBS) was added to each well. The plate was covered with a plate seal and incubated at room temperature for 1 hour. The blocked plate was washed 3× with Wash Buffer, then the final wash was removed and the plate was blotted dry. The previously prepared samples and standards were added (100 μL/well) and the plate was covered with a plate seal and incubated at 4° C. overnight.
The prepared ELISA plate was removed from incubation and allowed to stand at room temperature for 30 minutes, then washed and blotted dry. The Second Antibody (Cell Signaling Rabbit anti-Bmi-1, Cat#2830) diluted to 1:600 in Blocking Buffer was added (100 μL) to each well, except as needed for background control wells. The plate was covered with a plate seal and incubated for 1.5 hrs at room temperature.
The ELISA plate was washed and blotted dry as previously described. The Third Antibody (Cell Signaling HRP conjugated anti-rabbit IgG (CellSignaling, Cat#:7074) diluted to 1:300 in Blocking Buffer was added (100 μL) to each well, except as needed for background control wells. The plate was incubated for 1 hr at room temperature.
The plate was washed and blotted dry, then a previously prepared TMB substrate (TMB substrate kit, Pierce catalog #34021) (prepared by mixing kit reagents 1:1) (100 μL) was added per well. The plate was incubated for 20-30 minutes at room temperature in the dark, then Stop Solution (2 M sulfuric acid in water) (50 μL) was added per well. The plates were read at OD450 (experimental) and OD570 (reference).
For orientation: In an ELISA, binding on a coated surface is turned into a signal by an enzyme label.

Turning to `Cc1nc2cc(Cl)ccc2n1-c1cc(N)nc(Nc2ccc(C(F)(F)F)cc2)n1` [Cpd 47, 6-(5-chloro-2-methyl-1H-benzimidazol-1-yl)-N^2-[4-(trifluoromethyl)phenyl]pyrimidine-2,4-diamine], the EC50 lay in the range of 100 to 3000 nM.
Turning to `Cc1nn2ccc(Cl)cc2c1-c1cc(N)nc(Nc2ccc(C(F)(F)F)cc2)n1` [Cpd 122, 6-(5-chloro-2-methylpyrazolo[1,5-a]pyridin-3-yl)-N^2-[4-(trifluoromethyl)phenyl]pyrimidine-2,4-diamine], the EC50 was 10 to 100 nM.
`Cc1nc2ccccc2n1-c1nc(Nc2ccc(OC(F)F)cc2)nc(N)c1F` [Cpd 94, N^2-[4-(difluoromethoxy)phenyl]-5-fluoro-6-(2-methyl-1H-benzimidazol-1-yl)pyrimidine-2,4-diamine]: the EC50 was 10 to 100 nM.
In turn, `NC(=O)c1cccc(Nc2nccc(-c3cnc4ccccn34)n2)c1` [Cpd 75, 3-{[4-(imidazo[1,2-a]pyridin-3-yl)pyrimidin-2-yl]amino}benzamide] registered an EC50 of 100 to 3000 nM.
In turn, `Cc1ccc(Nc2nc(N)cc(-c3c(C)nc4ccc(F)cn34)n2)cc1` [Cpd 171, 6-(6-fluoro-2-methylimidazo[1,2-a]pyridin-3-yl)-N^2-(4-methylphenyl)pyrimidine-2,4-diamine] yielded a concentration giving a half-maximal response (EC50) of 1 to 10 nM.
`Cc1nc2ccccc2n1-c1nc(Nc2ccc(C(F)(F)F)cc2)nc(N)c1F` [Cpd 56, 5-fluoro-6-(2-methyl-1H-benzimidazol-1-yl)-N^2-[4-(trifluoromethyl)phenyl]pyrimidine-2,4-diamine]: the 50% effective concentration (EC50) was in the range of 100 to 3000 nM.
In the case of `COc1ccn2nc(C)c(-c3cc(Cl)nc(Nc4ccc(C(F)(F)F)cc4)n3)c2c1` [Cpd 113, 4-chloro-6-(5-methoxy-2-methylpyrazolo[1,5-a]pyridin-3-yl)-N-[4-(trifluoromethyl)phenyl]pyrimidin-2-amine] it was 10 to 100 nM.
For `CCc1nn2ccccc2c1-c1cc(N)nc(Nc2ccc(C(F)(F)F)cc2)n1` [Cpd 90, 6-(2-ethylpyrazolo[1,5-a]pyridin-3-yl)-N^2-[4-(trifluoromethyl)phenyl]pyrimidine-2,4-diamine], the half-maximal effective concentration (EC50) is 10 to 100 nM.
The result for `Cc1nc2cc(F)cc(F)c2n1-c1cc(N)nc(Nc2ccc(OC(F)F)cc2)n1` [Cpd 49, N^2-[4-(difluoromethoxy)phenyl]-6-(5,7-difluoro-2-methyl-1H-benzimidazol-1-yl)pyrimidine-2,4-diamine] reads 100 to 3000 nM; that for `Cc1nn2ccc(Cl)cc2c1-c1cc(N)nc(Nc2ccc(OC(F)F)cc2)n1` [Cpd 121, 6-(5-chloro-2-methylpyrazolo[1,5-a]pyridin-3-yl)-N^2-[4-(difluoromethoxy)phenyl]pyrimidine-2,4-diamine], 10 to 100 nM.
With `CCc1nn2ccccc2c1-c1cc(N)nc(Nc2ccc(OC(F)F)cc2)n1` [Cpd 91, N^2-[4-(difluoromethoxy)phenyl]-6-(2-ethylpyrazolo[1,5-a]pyridin-3-yl)pyrimidine-2,4-diamine], the EC50 was 10 to 100 nM.
`Nc1cc(-c2c(C3CC3)nn3ccc(F)cc23)nc(Nc2ccc(C(F)(F)F)cc2)n1` [Cpd 107, 6-(2-cyclopropyl-5-fluoropyrazolo[1,5-a]pyridin-3-yl)-N^2-[4-(trifluoromethyl)phenyl]pyrimidine-2,4-diamine] yielded an EC50 of 100 to 3000 nM.
Turning to `CCc1nc2ccccc2n1-c1cc(N)nc(Nc2ccc(C(F)(F)F)nc2)n1` [Cpd 95, 6-(2-ethyl-1H-benzimidazol-1-yl)-N^2-[6-(trifluoromethyl)pyridin-3-yl]pyrimidine-2,4-diamine], the EC50 is 10 to 100 nM.
With `Nc1cc(-n2c(C3CC3)nc3cc(F)c(F)cc32)nc(Nc2ccc(C(F)(F)F)cc2)n1` [Cpd 64, 6-(2-cyclopropyl-5,6-difluoro-1H-benzimidazol-1-yl)-N^2-[4-(trifluoromethyl)phenyl]pyrimidine-2,4-diamine], the concentration giving a half-maximal response (EC50) is 10 to 100 nM.
`Cc1nc2cc(F)ccc2n1-c1cc(N)nc(Nc2ccc(Cl)cc2)n1` [Cpd 191, N^2-(4-chlorophenyl)-6-(5-fluoro-2-methyl-1H-benzimidazol-1-yl)pyrimidine-2,4-diamine] showed an EC50 of 100 to 3000 nM.
Take `Cc1nc2ccc(F)cc2n1-c1nc(Nc2ccc(C(F)(F)F)cc2)nc(N)c1F` [Cpd 58, 5-fluoro-6-(6-fluoro-2-methyl-1H-benzimidazol-1-yl)-N^2-[4-(trifluoromethyl)phenyl]pyrimidine-2,4-diamine]: the EC50 lay in the range of 100 to 3000 nM.
`CCc1nn2ccc(Cl)cc2c1-c1cc(N)nc(Nc2ccc(C(F)(F)F)cc2)n1` [Cpd 124, 6-(5-chloro-2-ethylpyrazolo[1,5-a]pyridin-3-yl)-N^2-[4-(trifluoromethyl)phenyl]pyrimidine-2,4-diamine] yielded a concentration giving a half-maximal response (EC50) of 10 to 100 nM.
The compound `Cc1nc2ccccc2n1-c1cc(N)nc(Nc2ccc(Cl)c(F)c2)n1` [Cpd 179, N^2-(4-chloro-3-fluorophenyl)-6-(2-methyl-1H-benzimidazol-1-yl)pyrimidine-2,4-diamine] yielded a concentration giving a half-maximal response (EC50) of 10 to 100 nM.
In the case of `Cc1cccc(Nc2nc(N)cc(-n3c(C)nc4cc(F)c(F)cc43)n2)c1` [Cpd 195, 6-(5,6-difluoro-2-methyl-1H-benzimidazol-1-yl)-N^2-(3-methylphenyl)pyrimidine-2,4-diamine] it was 100 to 3000 nM.
In turn, `Cc1nc2ccccc2n1-c1cc(N)nc(Nc2ccc3c(c2)OC(F)(F)O3)n1` [Cpd 147, N^2-(2,2-difluoro-1,3-benzodioxol-5-yl)-6-(2-methyl-1H-benzimidazol-1-yl)pyrimidine-2,4-diamine] showed an EC50 of 100 to 3000 nM.
Regarding `Cc1nc2ccccc2n1-c1cc(N)nc(Nc2ccc(N(C)C)cc2)n1` [Cpd 144, N^2-[4-(dimethylamino)phenyl]-6-(2-methyl-1H-benzimidazol-1-yl)pyrimidine-2,4-diamine], the concentration for a half-maximal effect (EC50) was 1 to 10 nM.
Compound `Cc1nc2ccccc2n1-c1cc(N)[n+]([O-])c(Nc2ccc(C(F)(F)F)cc2)n1` [Cpd 110, 6-(2-methyl-1H-benzimidazol-1-yl)-N^2-[4-(trifluoromethyl)phenyl]pyrimidine-2,4-diamine 3-oxide] yielded a 50% effective concentration (EC50) of 100 to 3000 nM.
In turn, `CSc1nc2ccccc2n1-c1cc(N)nc(Nc2ccc(C(F)(F)F)cc2)n1` [Cpd 123, 6-[2-(methylsulfanyl)-1H-benzimidazol-1-yl]-N^2-[4-(trifluoromethyl)phenyl]pyrimidine-2,4-diamine] displayed a 50% effective concentration (EC50) of 10 to 100 nM.
`Cc1ccc2nc(C)n(-c3cc(N)nc(Nc4ccc(C(F)(F)F)c(C)c4)n3)c2c1` [Cpd 53, 6-(2,6-dimethyl-1H-benzimidazol-1-yl)-N^2-[3-methyl-4-(trifluoromethyl)phenyl]pyrimidine-2,4-diamine] showed an EC50 of 10 to 100 nM.
As to `Cc1nc2ccccc2n1-c1cc(Cl)nc(Nc2ccc(C(F)(F)F)nc2)n1` [Cpd 36, 4-chloro-6-(2-methyl-1H-benzimidazol-1-yl)-N-[6-(trifluoromethyl)pyridin-3-yl]pyrimidin-2-amine], the half-maximal effective concentration (EC50) lay in the range of 100 to 3000 nM.
`Cc1nc2c(cc(F)c[n+]2[O-])n1-c1cc(N)nc(Nc2ccc(C(F)(F)F)cc2)n1` [Cpd 108, 6-(6-fluoro-2-methyl-4-oxido-1H-imidazo[4,5-b]pyridin-1-yl)-N^2-[4-(trifluoromethyl)phenyl]pyrimidine-2,4-diamine] had an EC50 of 100 to 3000 nM.
As to `Nc1cc(-n2c(C(F)F)nc3ccccc32)nc(Nc2ccc(C(F)(F)F)cc2)n1` [Cpd 69, 6-[2-(difluoromethyl)-1H-benzimidazol-1-yl]-N^2-[4-(trifluoromethyl)phenyl]pyrimidine-2,4-diamine], the half-maximal effective concentration (EC50) was 10 to 100 nM.

The values above are taken from US10370371B2, “Substituted pyrimidine Bmi-1 inhibitors” (PTC Therapeutics, Inc., priority 2013, dated 2019).
